# Columns and labels:
# MDA-MB-231 [1] = test: Cell fraction gold uptake by GF-AAS; assay type: cell-based; settings: MDA-MB-231, 5 μM, 24 h
# Experimental: We next performed cellular uptake studies to determine what percentage of the compounds were getting into the cell after treatment. Given that most therapeutic targets are localized receptors on the plasma membrane, quantifying the amount of gold compounds in cellular fractions and investigating their mode of uptake is crucial. For whole-cell uptake studies, MDA-MB-231 were treated with all 10 compounds and Auranofin at 5 μM for 24 h (Fig. 5A). Auranofin is the only gold-based therapeutic to be clinically approved, therefor we used this drug as a benchmark for comparison.[67] After treatment, the cells were washed with PBS, centrifuged, and digested with 0.5 mL of conc. HNO3 and diluted with DI water and subjected to ICP-OES analysis. […] Given that these complexes readily react with nucleophilic biological molecules and the lack of accumulation in the nuclear fraction, it is evident that the mechanism of action of this class of compounds is differentiated from the clinically available platinum agents. […]
# and treated at a final concentration of 5 µ M and treated for 24 hours as well. The cells were then collected by trypsinization and centrifuged at 2000 rpm for 5 minutes to form a pellet. The pellet was suspended in 1 mL of DMEM, transferred to a 1.5 mL Eppendorf tube, and centrifuged again at 2000 rpm for 5 minutes. […]
# MDA-MB-231 [2] = test: Whole-cell uptake after pre-treatment with uptake inhibitors (GF-AAS); assay type: cell-based; settings: MDA-MB-231, 5 μM, 24 h; NaN3, chlorpromazine, Me-β-CD, genistein, wortmannin
# Experimental: To understand cell uptake mechanisms, detailed uptake studies using GF-AAS were conducted whereby MDA-MB-231 cells were incubated with gold compound, 2a after cellular pretreatment with one of a number of known inhibitors of cellular uptake. Sodium azide (NaN3), which is known to inhibit mitochondrial oxidative phosphorylation, was used as a general inhibitor of energy (ATP)-dependent (active) uptake; chlorpromazine (CL) was utilized as an inhibitor of clathrin-dependent endocytosis (CDE); β-cyclodextrin (Me-β-CD) and genestein (Gen) were used as inhibitors of clathrin-independent endocytosis (CIE); and, wortmannin (Wort) was employed as a known inhibitor of micropinocytosis. […] Being an […] pathway illustrates that these compounds are not dependent on oxidative phosphorylation for uptake, despite; their ability to modulate OXPHOS. […]
# and treated at a final concentration of 5 µ M and treated for 24 hours as well. The cells were then collected by trypsinization and centrifuged at 2000 rpm for 5 minutes to form a pellet. […]
# text (Figure 5C). Samples 37 °C, NaN 3, methyl-β-cyclodextrin, and chlorpromazine hydrochloride were calculated using calibration curve Fig. S134 and samples wortmannin, genistein, and +4 °C were calculated using calibration curve Fig. S135. […]
structure (smiles),measurement,setting,value
C[N+](C)=C1[S][Au-2]2([S]1)[c]1ccccc1Cc1cccc[n+]12.F[P-](F)(F)(F)(F)F (centres unmarked) [2a],Au content localized in the cytoplasm and total membrane fraction (pellet),MDA-MB-231 [1],> 90%
same,Uptake after pre-treatment with uptake inhibitors,MDA-MB-231 [2],significantly decreased with all inhibitors with the exception of NaN3
